Measurements reported in ChEMBL document CHEMBL5338754, “Identification of Binding Sites in the Nucleotide-Binding Domain of P-Glycoprotein for a Potent and Nontoxic Modulator, the Amine-Containing Monomeric Flavonoid FM04” (J Med Chem, 2023).

How the values were obtained:
[1] = biological target: T1, ATP-dependent translocase ABCB1 (Homo sapiens, UniProt P08183, I1115N); assay: Negative allosteric modulator activity at human P-gp I1115N mutant expressed in HEK293FT cells assessed as fold change in intracellular doxorubicin accumulation using doxorubicin as substrate at 1 uM incubated for 150 mins by microplate reader assay relative to DMSO; format: cell-based; details: 2.5 h
[2] = biological target: ATP-dependent translocase ABCB1 (Homo sapiens, UniProt P08183, T1226F); assay: Negative allosteric modulator activity at human P-gp T1226F mutant expressed in HEK293FT cells assessed as fold change in intracellular doxorubicin accumulation using doxorubicin as substrate at 1 uM incubated for 150 mins by microplate reader assay relative to DMSO; format: cell-based; details: 2.5 h
[3] = biological target: ATP-dependent translocase ABCB1 (Homo sapiens, UniProt P08183, G1114V); assay: Negative allosteric modulator activity at human P-gp G1114V mutant expressed in HEK293FT cells assessed as fold change in intracellular doxorubicin accumulation using doxorubicin as substrate at 1 uM incubated for 150 mins by microplate reader assay relative to DMSO; format: cell-based; details: 2.5 h
[4] = biological target: ATP-dependent translocase ABCB1 (Homo sapiens, UniProt P08183, Q1193K); assay: Negative allosteric modulator activity at human P-gp Q1193K mutant expressed in HEK293FT cells assessed as reversal of P-gp mediated PTX resistance by measuring sensitivity fold change incubated for 5 days by MTS assay; format: cell-based; details: 120 h, time 5 day
[5] = biological target: T2, ATP-dependent translocase ABCB1 (Homo sapiens, UniProt P08183, I1115M); assay: Negative allosteric modulator activity at human P-gp I1115M mutant expressed in HEK293FT cells assessed as increase in intracellular doxorubicin accumulation using doxorubicin as substrate at 1 uM incubated for 150 mins by microplate reader assay (reference value: 97 +/- 3.1 %); format: cell-based; details: 2.5 h
[6] = biological target: ATP-dependent translocase ABCB1 (Homo sapiens, UniProt P08183, Q1193N); assay: Activation of P-gp ATPase activity in human P-gp Q1193N mutant expressed in HEK293FT cell microsomes at 20 uM incubated for 1 hr in presence of ATP by Glo-luminescence based microplate reader assay (reference value: 0.34 +/- 0.05 pmol/min/microg); parameters: species or system Microsome
[7] = biological target: T3, ATP-dependent translocase ABCB1 (Homo sapiens, UniProt P08183, Q1193C); assay: Activation of P-gp ATPase activity in human P-gp Q1193C mutant expressed in HEK293FT cell microsomes assessed as fold change of ATPase activity at 20 uM incubated for 1 hr in presence of ATP by Glo-luminescence based microplate reader assay relative to DMSO; parameters: species or system Microsome
[8] = biological target: ATP-dependent translocase ABCB1 (Homo sapiens, UniProt P08183, T1226W); assay: Negative allosteric modulator activity at human P-gp T1226W mutant expressed in HEK293FT cells assessed as fold change in intracellular doxorubicin accumulation using doxorubicin as substrate at 1 uM incubated for 150 mins by microplate reader assay relative to DMSO; format: cell-based; details: 2.5 h
[9] = biological target: T4, ATP-dependent translocase ABCB1 (Homo sapiens, UniProt P08183, L1113A); assay: Negative allosteric modulator activity at human P-gp L1113A mutant expressed in HEK293FT cells assessed as fold change in intracellular doxorubicin accumulation using doxorubicin as substrate at 1 uM incubated for 150 mins by microplate reader assay relative to DMSO; format: cell-based; details: 2.5 h
[10] = biological target: T1, ATP-dependent translocase ABCB1; assay: Negative allosteric modulator activity at human P-gp I1115N mutant expressed in HEK293FT cells assessed as increase in intracellular doxorubicin accumulation using doxorubicin as substrate at 1 uM incubated for 150 mins by microplate reader assay (reference value: 98.6 +/- 4.3 %); format: cell-based; details: 2.5 h
[11] = biological target: P-gp (ABCB1) I1115F mutant (Homo sapiens, UniProt P08183, I1115F); assay: Activation of P-gp ATPase activity in human P-gp I1115F mutant expressed in HEK293FT cell microsomes assessed as fold change of ATPase activity at 20 uM incubated for 1 hr in presence of ATP by Glo-luminescence based microplate reader assay relative to DMSO; parameters: species or system Microsome; details: read-out: FC
[12] = biological target: T3, ATP-dependent translocase ABCB1; assay: Negative allosteric modulator activity at human P-gp Q1193C mutant expressed in HEK293FT cells assessed as increase in intracellular doxorubicin accumulation using doxorubicin as substrate at 1 uM incubated for 150 mins by microplate reader assay (reference value: 63 +/- 2.5 %); format: cell-based; details: 2.5 h
[13] = biological target: ATP-dependent translocase ABCB1 (Homo sapiens, UniProt P08183, C1227A); assay: Negative allosteric modulator activity at human P-gp C1227A mutant expressed in HEK293FT cells assessed as increase in intracellular doxorubicin accumulation using doxorubicin as substrate at 1 uM incubated for 150 mins by microplate reader assay (reference value: 33.3 +/- 1.3 %); format: cell-based; details: 2.5 h
[14] = biological target: ATP-dependent translocase ABCB1 (Homo sapiens, UniProt P08183); assay: Binding affinity to human P-glycoprotein expressed in LCC6MDR cells assessed as stabilization of protein by measuring fluorescence at 100 uM incubated for 1 hr by Western blotting analysis; format: cell-based
[15] = biological target: ATP-dependent translocase ABCB1 (Homo sapiens, UniProt P08183, Q1193F); assay: Negative allosteric modulator activity at human P-gp Q1193F mutant expressed in HEK293FT cells assessed as reversal of P-gp mediated PTX resistance by measuring sensitivity fold change incubated for 5 days by MTS assay; format: cell-based; details: 120 h, time 5 day
[16] = biological target: T4, ATP-dependent translocase ABCB1; assay: Negative allosteric modulator activity at human P-gp L1113A mutant expressed in HEK293FT cells assessed as increase in intracellular doxorubicin accumulation using doxorubicin as substrate at 1 uM incubated for 150 mins by microplate reader assay (reference value: 45.6 +/- 1.5 %); format: cell-based; details: 2.5 h
[17] = biological target: T2, ATP-dependent translocase ABCB1; assay: Negative allosteric modulator activity at human P-gp I1115M mutant expressed in HEK293FT cells assessed as fold change in intracellular doxorubicin accumulation using doxorubicin as substrate at 1 uM incubated for 150 mins by microplate reader assay relative to DMSO; format: cell-based; details: 2.5 h
[18] = biological target: T5, ATP-dependent translocase ABCB1 (Homo sapiens, UniProt P08183, I1115E); assay: Negative allosteric modulator activity at human P-gp I1115E mutant expressed in HEK293FT cells assessed as increase in intracellular doxorubicin accumulation using doxorubicin as substrate at 1 uM incubated for 150 mins by microplate reader assay (reference value: 94.7 +/- 5.1 %); format: cell-based; details: 2.5 h
[19] = biological target: T5, ATP-dependent translocase ABCB1; assay: Negative allosteric modulator activity at human P-gp I1115E mutant expressed in HEK293FT cells assessed as fold change in intracellular doxorubicin accumulation using doxorubicin as substrate at 1 uM incubated for 150 mins by microplate reader assay relative to DMSO; format: cell-based; details: 2.5 h
[20] = biological target: ATP-dependent translocase ABCB1 (Homo sapiens, UniProt P08183, I1115A); assay: Negative allosteric modulator activity at human P-gp I1115A mutant expressed in HEK293FT cells assessed as increase in intracellular doxorubicin accumulation using doxorubicin as substrate at 1 uM incubated for 150 mins by microplate reader assay (reference value: 91.6 +/- 4.4 %); format: cell-based; details: 2.5 h

T2 sequence (P08183 whole entry I1115M): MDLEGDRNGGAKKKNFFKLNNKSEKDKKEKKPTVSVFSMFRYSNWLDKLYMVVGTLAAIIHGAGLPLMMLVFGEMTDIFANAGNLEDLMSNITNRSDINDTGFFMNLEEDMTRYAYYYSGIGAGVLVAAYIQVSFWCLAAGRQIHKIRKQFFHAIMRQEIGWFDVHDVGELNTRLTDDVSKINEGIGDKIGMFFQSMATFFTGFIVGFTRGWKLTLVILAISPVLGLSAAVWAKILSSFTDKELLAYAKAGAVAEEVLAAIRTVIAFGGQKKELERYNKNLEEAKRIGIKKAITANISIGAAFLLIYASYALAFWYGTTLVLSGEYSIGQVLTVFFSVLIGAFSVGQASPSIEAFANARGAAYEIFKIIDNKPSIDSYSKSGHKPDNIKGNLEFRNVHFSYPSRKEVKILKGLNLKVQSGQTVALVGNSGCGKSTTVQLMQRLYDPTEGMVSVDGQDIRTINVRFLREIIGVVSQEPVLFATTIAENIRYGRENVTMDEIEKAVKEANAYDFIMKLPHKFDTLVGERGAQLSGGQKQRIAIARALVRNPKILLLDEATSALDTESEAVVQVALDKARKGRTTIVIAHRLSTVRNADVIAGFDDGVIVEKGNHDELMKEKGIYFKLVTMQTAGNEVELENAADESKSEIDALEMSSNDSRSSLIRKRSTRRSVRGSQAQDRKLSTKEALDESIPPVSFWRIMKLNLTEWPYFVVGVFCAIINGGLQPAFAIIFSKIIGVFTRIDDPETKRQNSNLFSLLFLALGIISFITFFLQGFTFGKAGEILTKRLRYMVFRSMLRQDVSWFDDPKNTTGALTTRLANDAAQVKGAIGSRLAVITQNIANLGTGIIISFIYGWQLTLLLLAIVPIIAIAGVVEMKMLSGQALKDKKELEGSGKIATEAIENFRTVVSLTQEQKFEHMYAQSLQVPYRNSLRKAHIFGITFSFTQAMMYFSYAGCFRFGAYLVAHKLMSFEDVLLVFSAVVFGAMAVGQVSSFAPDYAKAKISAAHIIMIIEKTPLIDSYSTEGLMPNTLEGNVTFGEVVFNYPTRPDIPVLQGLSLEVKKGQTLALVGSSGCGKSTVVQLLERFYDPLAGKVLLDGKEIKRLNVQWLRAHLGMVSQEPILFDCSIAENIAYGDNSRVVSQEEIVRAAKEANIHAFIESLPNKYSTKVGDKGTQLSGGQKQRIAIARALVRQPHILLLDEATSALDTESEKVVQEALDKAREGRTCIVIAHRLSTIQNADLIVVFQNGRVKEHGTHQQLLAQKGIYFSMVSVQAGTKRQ
T1 sequence (P08183 whole entry I1115N): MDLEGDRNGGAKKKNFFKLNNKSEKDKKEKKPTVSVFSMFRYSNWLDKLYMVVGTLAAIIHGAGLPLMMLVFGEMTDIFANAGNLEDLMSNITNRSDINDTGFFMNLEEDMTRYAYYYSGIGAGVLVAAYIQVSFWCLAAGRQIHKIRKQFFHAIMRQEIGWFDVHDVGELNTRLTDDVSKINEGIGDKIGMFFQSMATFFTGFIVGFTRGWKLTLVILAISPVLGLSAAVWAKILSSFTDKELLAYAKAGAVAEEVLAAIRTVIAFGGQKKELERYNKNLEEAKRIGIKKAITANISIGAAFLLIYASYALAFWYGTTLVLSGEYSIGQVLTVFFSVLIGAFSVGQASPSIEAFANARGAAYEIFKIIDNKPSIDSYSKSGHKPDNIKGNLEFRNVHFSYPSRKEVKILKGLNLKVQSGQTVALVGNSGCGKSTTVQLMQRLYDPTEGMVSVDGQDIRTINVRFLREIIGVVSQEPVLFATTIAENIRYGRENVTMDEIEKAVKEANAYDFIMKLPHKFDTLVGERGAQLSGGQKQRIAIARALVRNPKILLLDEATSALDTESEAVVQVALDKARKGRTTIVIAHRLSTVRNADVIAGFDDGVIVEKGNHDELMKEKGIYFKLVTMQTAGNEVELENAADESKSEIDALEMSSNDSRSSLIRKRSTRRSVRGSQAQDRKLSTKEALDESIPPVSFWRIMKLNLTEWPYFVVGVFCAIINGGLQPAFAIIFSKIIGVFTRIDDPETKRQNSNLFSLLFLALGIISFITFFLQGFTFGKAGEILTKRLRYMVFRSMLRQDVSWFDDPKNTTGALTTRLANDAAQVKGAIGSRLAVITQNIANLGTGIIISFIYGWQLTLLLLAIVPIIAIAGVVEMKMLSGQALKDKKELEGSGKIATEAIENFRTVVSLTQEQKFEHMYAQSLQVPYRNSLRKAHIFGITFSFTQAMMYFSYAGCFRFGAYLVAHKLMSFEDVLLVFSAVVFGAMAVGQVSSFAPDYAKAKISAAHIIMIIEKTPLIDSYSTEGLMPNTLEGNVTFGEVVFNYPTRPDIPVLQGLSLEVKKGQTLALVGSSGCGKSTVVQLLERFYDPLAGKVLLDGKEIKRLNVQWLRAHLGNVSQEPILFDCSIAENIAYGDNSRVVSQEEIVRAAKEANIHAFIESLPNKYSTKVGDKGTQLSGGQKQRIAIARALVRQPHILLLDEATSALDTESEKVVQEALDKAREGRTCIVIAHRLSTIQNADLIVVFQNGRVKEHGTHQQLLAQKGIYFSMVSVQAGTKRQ
T5 sequence (P08183 whole entry I1115E): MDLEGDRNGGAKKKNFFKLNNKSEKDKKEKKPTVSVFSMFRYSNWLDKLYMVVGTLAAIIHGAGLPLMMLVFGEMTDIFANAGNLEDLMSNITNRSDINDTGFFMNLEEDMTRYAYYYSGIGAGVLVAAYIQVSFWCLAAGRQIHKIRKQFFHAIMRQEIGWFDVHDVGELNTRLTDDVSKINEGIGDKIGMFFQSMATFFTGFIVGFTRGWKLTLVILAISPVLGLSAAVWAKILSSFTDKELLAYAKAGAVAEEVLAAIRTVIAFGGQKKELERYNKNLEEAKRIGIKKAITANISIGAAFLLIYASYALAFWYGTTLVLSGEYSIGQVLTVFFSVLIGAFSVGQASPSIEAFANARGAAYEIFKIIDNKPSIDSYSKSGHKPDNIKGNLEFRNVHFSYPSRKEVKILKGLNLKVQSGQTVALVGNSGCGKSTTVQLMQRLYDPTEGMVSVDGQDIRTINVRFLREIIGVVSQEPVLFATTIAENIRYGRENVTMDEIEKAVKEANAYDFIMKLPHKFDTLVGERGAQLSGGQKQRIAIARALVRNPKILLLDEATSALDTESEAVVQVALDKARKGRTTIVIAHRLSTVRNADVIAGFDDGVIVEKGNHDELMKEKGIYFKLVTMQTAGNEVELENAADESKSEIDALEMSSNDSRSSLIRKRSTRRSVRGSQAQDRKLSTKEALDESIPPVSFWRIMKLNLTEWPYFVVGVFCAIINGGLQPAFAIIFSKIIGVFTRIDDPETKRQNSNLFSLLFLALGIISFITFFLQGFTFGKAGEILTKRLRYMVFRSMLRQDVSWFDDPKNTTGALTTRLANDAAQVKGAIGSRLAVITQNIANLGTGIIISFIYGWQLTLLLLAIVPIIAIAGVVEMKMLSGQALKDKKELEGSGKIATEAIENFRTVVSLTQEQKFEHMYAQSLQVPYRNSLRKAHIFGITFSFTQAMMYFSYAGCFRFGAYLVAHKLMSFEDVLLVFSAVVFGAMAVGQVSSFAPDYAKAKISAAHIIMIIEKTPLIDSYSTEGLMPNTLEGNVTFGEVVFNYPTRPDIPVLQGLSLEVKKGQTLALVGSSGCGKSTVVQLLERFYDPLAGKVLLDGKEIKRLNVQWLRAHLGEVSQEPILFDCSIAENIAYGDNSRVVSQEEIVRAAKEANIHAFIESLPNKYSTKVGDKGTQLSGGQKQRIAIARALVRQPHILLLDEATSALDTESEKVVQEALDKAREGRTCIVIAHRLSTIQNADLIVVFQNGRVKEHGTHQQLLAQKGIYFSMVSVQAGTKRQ
T4 sequence (P08183 whole entry L1113A): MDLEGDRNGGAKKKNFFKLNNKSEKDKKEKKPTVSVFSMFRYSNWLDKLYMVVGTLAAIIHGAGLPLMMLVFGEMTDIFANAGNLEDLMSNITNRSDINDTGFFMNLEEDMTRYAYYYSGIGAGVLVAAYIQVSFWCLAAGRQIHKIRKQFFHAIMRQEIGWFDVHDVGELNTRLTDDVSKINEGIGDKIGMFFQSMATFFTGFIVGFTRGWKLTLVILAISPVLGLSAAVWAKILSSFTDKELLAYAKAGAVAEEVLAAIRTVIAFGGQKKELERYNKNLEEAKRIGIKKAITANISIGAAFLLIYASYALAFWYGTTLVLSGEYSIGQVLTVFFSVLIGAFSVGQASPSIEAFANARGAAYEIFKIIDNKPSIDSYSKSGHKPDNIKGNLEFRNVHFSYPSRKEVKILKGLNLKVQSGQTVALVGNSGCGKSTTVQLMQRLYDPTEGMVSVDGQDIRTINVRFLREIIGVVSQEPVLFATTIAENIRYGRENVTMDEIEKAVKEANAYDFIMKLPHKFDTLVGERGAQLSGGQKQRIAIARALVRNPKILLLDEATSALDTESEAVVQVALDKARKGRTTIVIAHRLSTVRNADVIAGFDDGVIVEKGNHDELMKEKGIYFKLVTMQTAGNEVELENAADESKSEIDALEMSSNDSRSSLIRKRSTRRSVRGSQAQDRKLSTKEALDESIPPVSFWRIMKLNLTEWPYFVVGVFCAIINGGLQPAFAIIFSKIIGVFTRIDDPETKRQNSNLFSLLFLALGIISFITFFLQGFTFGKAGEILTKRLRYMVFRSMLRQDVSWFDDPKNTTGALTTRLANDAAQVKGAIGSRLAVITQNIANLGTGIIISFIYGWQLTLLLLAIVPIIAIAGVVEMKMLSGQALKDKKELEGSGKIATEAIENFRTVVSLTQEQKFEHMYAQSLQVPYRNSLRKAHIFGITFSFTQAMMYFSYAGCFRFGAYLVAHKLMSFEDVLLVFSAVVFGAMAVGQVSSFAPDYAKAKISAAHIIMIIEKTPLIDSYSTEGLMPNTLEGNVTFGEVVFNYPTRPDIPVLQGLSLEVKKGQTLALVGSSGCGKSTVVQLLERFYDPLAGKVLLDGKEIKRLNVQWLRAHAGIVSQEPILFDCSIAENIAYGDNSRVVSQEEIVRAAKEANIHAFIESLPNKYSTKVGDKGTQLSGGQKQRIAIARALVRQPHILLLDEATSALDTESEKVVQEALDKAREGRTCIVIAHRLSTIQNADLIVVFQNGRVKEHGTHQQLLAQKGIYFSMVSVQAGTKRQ

## O=c1cc(-c2ccc(OCCOCCNCc3ccccc3)cc2)oc2ccccc12
[1]
  fold change (FC): 1
[2]
  fold change (FC): 1.5
[3]
  fold change (FC): 1
[4]
  fold change (FC): 9.4
[5]
  Activity: 93.3%
[6]
  Activity: 0.58 pmol/min/µg
[7]
  fold change (FC): 1.3
[8]
  fold change (FC): 1.5
[9]
  fold change (FC): 1.8
[10]
  Activity: 94.1%
[11]
  fold induction at 1 h, 20 µM: 1.2
[12]
  Activity: 81.4%
[13]
  Activity: 43.8%
[14]
  Activity: Active
[15]
  fold change (FC): 5.6
[16]
  Activity: 82.2%
[17]
  fold change (FC): 1
[18]
  Activity: 97.8%
[19]
  fold change (FC): 1
[20]
  Activity: 89.7%
